This is an account of results in patent US20090209568A1, “Spiro [Benzopyran] or Spiro [Benzofuran] Derivatives Which Inhibit the Sigma Receptor” (priority 2006, published 2009).

One series addresses T1, σ1-receptor (Cavia porcellus, UniProt Q60492).
T1 construct: guinea pig brains were homogenized in 10 vols; (w/v) of Tris-HCl 50 mM 0.32 M sucrose; from tissue; host or cells: guinea pig brain membranes
As to the kind of experiment: Sigma-1 receptor radioligand binding, [3H](+)pentazocine (Version A / Version B). To be noted: for inhibition at 0.1 µM: compound 10^−7 M; for inhibition at 0.1 µM / inhibition at 0.01 µM / % Binding σ1 10^−6 M: guinea pig brain membranes; for inhibition at 0.01 µM: compound 10^−8 M; for % Binding σ1 10^−6 M: compound 10^−6 M; for Ki: value in parentheses below the % binding, guinea pig brain. Further details: species or system guinea pig. As for the experimental part:
Brain membrane preparation and binding assays for the σ1-receptor were performed as described (DeHaven-Hudkins et al., 1992) with some modifications. In brief, guinea pig brains were homogenized in 10 vols. (w/v) of Tris-HCl 50 mM 0.32 M sucrose, pH 7.4, with a Kinematica Polytron PT 3000 at 15000 r.p.m. for 30 s. The homogenate was centrifuged at 1000 g for 10 min at 4° C. and the supernatants collected and centrifuged again at 48000 g for 15 min at 4° C. The pellet was resuspended in 10 volumes of Tris-HCl buffer (50 mM, pH 7.4), incubated at 37° C. for 30 min, and centrifuged at 48000 g for 20 min at 4° C. Following this, the pellet was resuspended in fresh Tris-HCl buffer (50 mM, pH 7.4) and stored on ice until use.
Each assay tube contained 10 μL of [^3H](+)pentazocine (final concentration of 0.5 nM), 900 μL of the tissue suspension to a final assay volume of 1 mL and a final tissue concentration of approximately 30 mg tissue net weight/mL. Non-specific binding was defined by addition of a final concentration of 1 μM haloperidol. All tubes were incubated at 37° C. for 150 min before termination of the reaction by rapid filtration over Schleicher & Schuell GF 3362 glass fibre filters [previously soaked in a solution of 0.5% polyethylenimine for at least 1 h]. Filters were then washed with four times with 4 mL of cold Tris-HCl buffer (50 mM, pH 7.4). Following addition of scintillation cocktail, the samples were allowed to equilibrate overnight. The amount of bound radioactivity was determined by liquid scintillation spectrometry using a Wallac Winspectral 1414 liquid scintillation counter. Protein concentrations were determined by the method of Lowry et al. (1951).
In brief the σ1-receptor preparation was prepared from guinea pig brain. The brains were homogenized in 5 to 6 times of volume sucrose solution (0.32M) and homogenized. The homogenate was centrifuged at 2900 rpm, 4° C., 10 min). the supernatant was centrifuged again (23500×g, 4° C., 20 min). The pellet was resuspended in Tris-buffer, incubated for 30 min at room temperature and centrifuged f (23500×g, 4° C., 20 min). The pellet was resuspended in cold TRIS-buffer and homogenized. Then the protein content was measured (approx. 1.5 mg/mL) and the homogenate frozen at −80° C. for later use.
The radioligand used was [^3H]-(+)-Pentazocin in TRIS-buffer. In a volume of 200 μL 50 μL TRIS-buffer, 50 μL compound solution of varying concentration, 50 μL radioligand-solution (8 nM; resulting in 2 nM in the assay) and finally 50 μL of receptor preparation (approx. 1.5 mg/mL) were given into a well of a microplate equipped with a filter. The plate was closed and stirred for 2.5 h at 37° C. and 500 rpm. Following that the solvents were removed by a harvester through the filter. After rinsing with H2O the filter was measured in a scintillation counter ([^3H]-protocol).

In a further series the test system is σ2-receptor. Nature of the series: Sigma-2 receptor radioligand binding, [3H]-DTG (Version A / Version B). Further details: species or system mice (Version A, σ1 knockout brain) / rat (Version B, liver). To be noted: compound 10^−6 M. As for the experimental part: Binding studies for σ2-receptor were performed as described (Radesca et al., 1991) with some modifications. In brief, brains from sigma receptor type I (σ1) knockout mice were homogenized in a volume of 10 mL/g tissue net weight of ice-cold 10 mM Tris-HCl, pH 7.4, containing 320 mM sucrose (Tris-sucrose buffer) with a Potter-Elvehjem homogenizer (10 strokes at 500 r.p.m.) The homogenates were then centrifuged at 1000 g for 10 min at 4° C., and the supernatants were saved. The pellets were resuspended by vortexing in 2 mL/g ice-cold Tris-sucrose buffer and centrifuged again at 1000 g for 10 min. The combined 1000 g supernatants were centrifuged at 31000 g for 15 min at 4° C. The pellets were resuspended by vortexing in 3 mL/g 10 mM Tris-HCl, pH 7.4, and the suspension was kept at 25° C. for 15 min. Following centrifugation at 31000 g for 15 min, the pellets were resuspended by gentle Potter Elvehjem homogenization to a volume of 1.53 mL/g in 10 mM Tris-HCl pH 7.4.
The assay tubes contained 10 μL of [^3H]-DTG (final concentration of 3 nM), 400 μL of the tissue suspension (5.3 mL/g in 50 mM Tris-HCl, pH 8.0) to a final assay volume of 0.5 mL. Non-specific binding was defined by addition of a final concentration of 1 μM haloperidol. All tubes were incubated at 25° C. for 120 min before termination of the reaction by rapid filtration over Schleicher & Schuell GF 3362 glass fibre filters [previously soaked in a solution of 0.5% polyethylenimine for at least 1 h]. Filters were washed with three times with 5 mL volumes of cold Tris-HCl buffer (10 mM, pH 8.0). Following addition of scintillation cocktail samples were allowed to equilibrate overnight. The amount of bound radioactivity was determined by liquid scintillation spectrometry using a Wallac Winspectral 1414 liquid scintillation counter. Protein concentrations were determined by the method of Lowry et al. (1951).
In brief the σ2-Receptor preparation was prepared from rat liver. The livers were homogenized in 5 to 6 times of volume sucrose solution (0.32M) and homogenized. The homogenate was centrifuged at 2900 rpm, 4° C., 10 min). the supernatant was centrifuged again (31000×g, 4° C., 20 min). The pellet was resuspended in TRIS-buffer, incubated for 30 min at room temperature while stirring and centrifuged f (31000×g, 4° C., 20 min). The pellet was resuspended in cold TRIS-buffer pH 8 and homogenized. Then the protein content was measured (approx. 2 mg/mL) and the homogenate frozen at −80° C. for later use.
The radioligand used was [^3H]-Ditolylguanidin in TRIS-buffer pH 8. The σ1-receptor binding sites were masked through (+)-Pentazocin-solution in TRIS-Puffer pH 8.
In a volume of 200 μL 50 μL compound solution of varying concentration, 50 μL (+Pentazocin-solution (2 μM; resulting in 500 nM in the assay), 50 μL radioligand-solution (12 nM; resulting in 3 nM in the assay) and finally 50 μL of receptor preparation (approx. 2 mg/mL) were given into a well of a microplate equipped with a filter. The plate was closed and stirred for 2 h at room temperature and 500 rpm. Following that the solvents were removed by a harvester through the filter. After rinsing with H2O the filter was measured in a scintillation counter ([^3H]-protocol).

T1 sequence (Q60492 whole entry): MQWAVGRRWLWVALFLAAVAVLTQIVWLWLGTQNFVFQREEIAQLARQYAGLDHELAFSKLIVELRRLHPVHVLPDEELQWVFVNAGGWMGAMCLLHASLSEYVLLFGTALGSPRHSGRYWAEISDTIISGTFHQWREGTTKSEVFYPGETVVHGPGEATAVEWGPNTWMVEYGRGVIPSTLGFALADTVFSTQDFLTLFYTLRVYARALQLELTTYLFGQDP

Take `COC1OC2(CCN(CCc3ccccc3)C2)c2ccccc21` (mixture of isomers) [Example 27, cis/trans-3-Methoxy-1′-(2-Phenylethyl)-3H-spiro[[2]benzofuran-1,3′-pyrrolidin]]: on σ1-receptor, the inhibition at 0.1 µM came to 92.2% and the inhibition at 0.01 µM was 40.4%.

On to `CCCCN1CCC[C@]2(C1)O[C@H](OC)Cc1ccccc12` (racemic) [Example 11, trans-1′-Butyl-3-methoxy-3,4-dihydrospiro[[2]benzopyran-1,3′-piperidin]], for which the “% Binding σ1 10^−6 M” value at σ1-receptor is reported as 49^ %. Moreover, the “% Binding σ2 10^−6 M” value in the series on σ2-receptor is on record as 18.8%.

As for `COC1Cc2ccccc2C2(CCN(CCCCc3ccccc3)C2)O1` (mixture of isomers) [Example 21, cis/trans-3-Methoxy-1′-(4-phenylbutyl)-3,4-dihydrospiro[[2]benzopyran-1,3′-pyrrolidin]], at σ1-receptor, the inhibition at 0.1 µM came out at 67% and testing at 0.01 µM gave an inhibition of 32%.

With `CO[C@@H]1Cc2ccccc2[C@@]2(CCCN(Cc3ccccc3)C2)O1` [Example 1, cis-1′-Benzyl-3-methoxy-3,4-dihydrospiro[[2]benzopyran-1,3′-piperidin]], testing at 0.1 µM at σ1-receptor gave an inhibition of 34%.

Take `CCCCN1CCC2(C1)OC(OC)c1ccccc12` (mixture of isomers) [Example 29, cis/trans-1′-Butyl-3-methoxy-3H-spiro[[2]benzofuran-1,3′-pyrrolidin]]: at σ1-receptor, the inhibition at 0.1 µM was 68.9% and the inhibition at 0.01 µM amounted to 45.6%.

With `CO[C@@H]1Cc2ccccc2[C@@]2(CCCN(CCCc3ccccc3)C2)O1` (relative stereo) [Example 6, cis-3-Methoxy-1′-(3-phenylpropyl)-3,4-dihydrospiro[[2]benzopyran-1,3′-piperidin]], the “% Binding σ1 10^−6 M” value at σ1-receptor is given as 38.8%. Besides, in the series on σ2-receptor, the “% Binding σ2 10^−6 M” value came to 32.2%.

As to `COC1OC2(CCN(CCCCc3ccccc3)C2)c2ccccc21` (mixture of isomers) [Example 28, cis/trans-3-Methoxy-1′-(4-Phenylbutyl)-3H-spiro[[2]benzofuran-1,3′-pyrrolidin]], on σ1-receptor, the inhibition at 0.1 µM was found to be 80.4% and at 0.01 µM the inhibition was 27.4%.

On to `CO[C@@H]1Cc2ccccc2[C@]2(CCCN(Cc3ccccc3)C2)O1` (relative stereo) [Example 2, trans-1′-Benzyl-3-methoxy-3,4-dihydrospiro[[2]benzopyran-1,3′-piperidin]], for which the “% Binding σ1 10^−6 M” value on σ1-receptor is given as 12.9%. In addition, in the series with σ2-receptor, the “% Binding σ2 10^−6 M” value is 27.8%.

On to `COC1OC2(CC[N+]3(CCCC3)CC2)c2ccccc21.[Br-]` (centres unmarked), for which the melting point was 124 °C.

With `CCCCCCCCN1CCC2(C1)OC(OC)c1ccccc12` (mixture of isomers) [Example 30, cis/trans-3-Methoxy-1′-octyl-3H-spiro[[2]benzofuran-1,3′-pyrrolidin]], at σ1-receptor, 0.1 µM produced 91.5% inhibition and the inhibition at 0.01 µM stood at 41.8%.

In the case of `CCCCN1CCC2(CC1)OC(OC)Cc1ccccc12` (centres unmarked) [Example 36], on σ1-receptor, the “% Binding σ1 10^−6 M” value was 100.8% and the Ki was 2.3 nM. Also, the “% Binding σ2 10^−6 M” value with σ2-receptor was found to be 39.7%.

For the compound `COC1Cc2ccccc2C2(CCN(Cc3ccccc3)C2)O1` (mixture of isomers) [Example 18, cis/trans-1′-Benzyl-3-methoxy-3,4-dihydrospiro[[2]benzopyran-1,3′-pyrrolidin]], on σ1-receptor, the “% Binding σ1 10^−6 M” value is reported as 96.2% and the Ki came out at 70 nM.

Regarding `CCCCCCCCN1CCC[C@@]2(C1)O[C@H](OC)Cc1ccccc12` [Example 14, cis-3-Methoxy-1′-octyl-3,4-dihydrospiro[[2]bonzopyran-1,3′-piperidin]], the “% Binding σ1 10^−6 M” value on σ1-receptor was determined as 46.3%. For the same compound, the “% Binding σ2 10^−6 M” value with σ2-receptor came out at 45.4%.

For `CCCCN1CCC[C@@]2(C1)O[C@H](OC)Cc1ccccc12` (relative stereo) [Example 10, cis-1′-Butyl-3-methoxy-3,4-dihydrospiro[[2]benzopyran-1,3′-piperidin]], on σ1-receptor, the “% Binding σ1 10^−6 M” value is given as 56^ %. In addition, the “% Binding σ2 10^−6 M” value with σ2-receptor was 7.6%.

Regarding `CO[C@@H]1Cc2ccccc2[C@]2(CCCN(CCCc3ccccc3)C2)O1` (relative stereo) [Example 7, trans-3-Methoxy-1′-(3-phenylpropyl)-3,4 dihydrospiro[[2]benzopyran-1,3′-piperidin]], the “% Binding σ1 10^−6 M” value at σ1-receptor was 14^ %. For the same compound, the “% Binding σ2 10^−6 M” value with σ2-receptor was determined as 54.3%.

In the case of `COC1Cc2ccccc2C2(CCCNC2)O1` (centres unmarked), the melting point lay in the range of 54 to 58 °C.

For `CCCCCCCCN1CCC2(CC1)OC(OC)Cc1ccccc12` (centres unmarked) [Example 37], on σ1-receptor, the “% Binding σ1 10^−6 M” value amounted to 103.9%. Besides, the “% Binding σ2 10^−6 M” value with σ2-receptor was 72.6%.

Consider `COC1Cc2ccccc2C2(CCN(CCc3ccccc3)C2)O1` (mixture of isomers) [Example 20, cis/trans-3-Methoxy-1′-(2-phenylethyl)-3,4-dihydrospiro[[2]benzopyran-1,3′-pyrrolidin]], for which, at σ1-receptor, testing at 0.1 µM gave an inhibition of 89.5% and the inhibition at 0.01 µM turned out to be 32%.

As for `CCCCCCCCN1CCC[C@]2(C1)O[C@H](OC)Cc1ccccc12` (relative stereo) [Example 15, trans-3-Methoxy-1′-octyl-3,4-dihydrospiro[[2]benzopyran-1,3′-piperidin]], on σ1-receptor, the “% Binding σ1 10^−6 M” value amounted to 27.6%. In addition, in the series with σ2-receptor, the “% Binding σ2 10^−6 M” value was 56.3%.

On σ1-receptor, `CCCCCCCCN1CCC2(C1)OC(OC)Cc1ccccc12` (mixture of isomers) [Example 23, cis/trans-3-Methoxy-1′-octyl-3,4-dihydrospiro[[2]benzopyran-1,3′-pyrrolidin]] gave an inhibition at 0.1 µM of 70.4% and an inhibition at 0.01 µM of 0.8%.

What is called inhibition is the drop in the measured response relative to a control, in per cent. High values mean strong suppression, low ones little suppression. The term melting point denotes the temperature of the solid-liquid transition. One may read the Ki as the equilibrium dissociation constant of an inhibitor or competing ligand from its target.
